Measurements as given in ChEMBL document CHEMBL1201862, “PubChem BioAssay data set” (2004).
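The compound was tested at five concentrations on cells cultured in 96-well plates, with a 48-hour exposure period. GI50 is the concentration that inhibits growth by half.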 The source made the active and inactive calls. No stated cut-off is given here; in the data, active = GI50 up to about 1.1 µM and inactive = higher.

Columns and labels:
Assay in all cases: DTP human tumour cell line panel, 48 h
HCT-116 = test system: HCT-116
SNB-19 = test system: SNB-19
CAKI-1 = test system: CAKI-1
A498 = test system: A498
MDA-N = test system: MDA-N
SF-295 = test system: SF-295
UO-31 = test system: UO-31
SK-MEL-5 = test system: SK-MEL-5
ACHN = test system: ACHN
K562 = test system: K562
CCRF-CEM = test system: CCRF-CEM
MOLT-4 = test system: MOLT-4
SF-268 = test system: SF-268
NCI-H522 = test system: NCI-H522
NCI-H460 = test system: NCI-H460
NCI/ADR-RES = test system: NCI/ADR-RES
OVCAR-8 = test system: OVCAR-8
HOP-92 = test system: HOP-92
IGROV-1 = test system: IGROV-1
RXF 393 = test system: RXF 393
NCI-H23 = test system: NCI-H23
786-0 = test system: 786-0
TK-10 = test system: TK-10
MDA-MB-435 = test system: MDA-MB-435
MCF7 = test system: MCF7
PC-3 = test system: PC-3
BT-549 = test system: BT-549
EKVX = test system: EKVX
COLO 205 = test system: COLO 205
Malme-3M = test system: Malme-3M
SK-MEL-2 = test system: SK-MEL-2
OVCAR-4 = test system: OVCAR-4
HT-29 = test system: HT-29
DU-145 = test system: DU-145
MDA-MB-231 = test system: MDA-MB-231
Hs-578T = test system: Hs-578T
LOX IMVI = test system: LOX IMVI
SK-OV-3 = test system: SK-OV-3
UACC-257 = test system: UACC-257
OVCAR-5 = test system: OVCAR-5
HOP-62 = test system: HOP-62
SK-MEL-28 = test system: SK-MEL-28
NCI-H226 = test system: NCI-H226
SW-620 = test system: SW-620
T47D = test system: T47D
HCT-15 = test system: HCT-15
HCC 2998 = test system: HCC 2998
SR = test system: SR
UACC-62 = test system: UACC-62
SN12C = test system: SN12C
M14 = test system: M14
U-251 = test system: U-251
A549 = test system: A549
HL-60 = test system: HL-60
KM12 = test system: KM12
RPMI-8226 = test system: RPMI-8226
OVCAR-3 = test system: OVCAR-3
SNB-75 = test system: SNB-75
SF-539 = test system: SF-539

## CN1C(=O)CN(NC(=O)C2=C(O)c3ccc(Br)cc3S(=O)(=O)N2)C1=S
HCT-116
  GI50: > 100 µM (inactive)
SNB-19
  GI50: > 100 µM (inactive)
CAKI-1
  GI50: > 100 µM (inactive)
A498
  GI50: > 100 µM (inactive)
MDA-N
  GI50: 45.3 µM (inactive)
SF-295
  GI50: > 100 µM (inactive)
UO-31
  GI50: > 100 µM (inactive)
SK-MEL-5
  GI50: > 100 µM (inactive)
ACHN
  GI50: > 100 µM (inactive)
K562
  GI50: 49.2 µM (inactive)
CCRF-CEM
  GI50: 19.2 µM (inactive)
MOLT-4
  GI50: > 100 µM (inactive)
SF-268
  GI50: > 100 µM (inactive)
NCI-H522
  GI50: 75.7 µM (inactive)
NCI-H460
  GI50: > 100 µM (inactive)
NCI/ADR-RES
  GI50: > 100 µM (inactive)
OVCAR-8
  GI50: > 100 µM (inactive)
HOP-92
  GI50: > 100 µM (inactive)
IGROV-1
  GI50: > 100 µM (inactive)
RXF 393
  GI50: > 100 µM (inactive)
NCI-H23
  GI50: > 100 µM (inactive)
786-0
  GI50: > 100 µM (inactive)
TK-10
  GI50: > 100 µM (inactive)
MDA-MB-435
  GI50: > 100 µM (inactive)
MCF7
  GI50: 53.7 µM (inactive)
PC-3
  GI50: > 100 µM (inactive)
BT-549
  GI50: > 100 µM (inactive)
EKVX
  GI50: > 100 µM (inactive)
COLO 205
  GI50: > 100 µM (inactive)
Malme-3M
  GI50: 33.4 µM (inactive)
SK-MEL-2
  GI50: > 100 µM (inactive)
OVCAR-4
  GI50: > 100 µM (inactive)
HT-29
  GI50: > 100 µM (inactive)
DU-145
  GI50: > 100 µM (inactive)
MDA-MB-231
  GI50: > 100 µM (inactive)
Hs-578T
  GI50: > 100 µM (inactive)
LOX IMVI
  GI50: > 100 µM (inactive)
SK-OV-3
  GI50: > 100 µM (inactive)
UACC-257
  GI50: > 100 µM (inactive)
OVCAR-5
  GI50: > 100 µM (inactive)
HOP-62
  GI50: > 100 µM (inactive)
SK-MEL-28
  GI50: > 100 µM (inactive)
NCI-H226
  GI50: > 100 µM (inactive)
SW-620
  GI50: > 100 µM (inactive)
T47D
  GI50: > 100 µM (inactive)
HCT-15
  GI50: > 100 µM
HCC 2998
  GI50: > 100 µM (inactive)
SR
  GI50: 46.1 µM (inactive)
UACC-62
  GI50: > 100 µM (inactive)
SN12C
  GI50: > 100 µM (inactive)
M14
  GI50: > 100 µM (inactive)
U-251
  GI50: > 100 µM (inactive)
A549
  GI50: > 100 µM (inactive)
HL-60
  GI50: 33 µM (inactive)
KM12
  GI50: 78.3 µM (inactive)
RPMI-8226
  GI50: > 100 µM (inactive)

## CC(C)(C)OC(=O)NC(Cc1ccc(OCc2ccccc2)cn1)C(=O)N1CCCC1 (stereo unspecified)
HCT-116
  GI50: 79.3 µM (inactive)
OVCAR-3
  GI50: 25.6 µM (inactive)
SNB-19
  GI50: > 100 µM (inactive)
CAKI-1
  GI50: > 100 µM (inactive)
A498
  GI50: > 100 µM (inactive)
SNB-75
  GI50: 77.3 µM (inactive)
MDA-N
  GI50: 55.8 µM (inactive)
SF-295
  GI50: 30.1 µM (inactive)
UO-31
  GI50: > 100 µM (inactive)
SK-MEL-5
  GI50: 19.3 µM (inactive)
ACHN
  GI50: > 100 µM (inactive)
K562
  GI50: 67.8 µM (inactive)
CCRF-CEM
  GI50: 44.8 µM (inactive)
MOLT-4
  GI50: 34.8 µM (inactive)
SF-268
  GI50: 89.1 µM (inactive)
NCI-H522
  GI50: 35.3 µM (inactive)
NCI-H460
  GI50: 78 µM (inactive)
NCI/ADR-RES
  GI50: 25.1 µM (inactive)
OVCAR-8
  GI50: 40.6 µM (inactive)
HOP-92
  GI50: > 100 µM (inactive)
IGROV-1
  GI50: > 100 µM (inactive)
RXF 393
  GI50: 69.3 µM (inactive)
NCI-H23
  GI50: 45.7 µM (inactive)
786-0
  GI50: > 100 µM (inactive)
TK-10
  GI50: > 100 µM (inactive)
MDA-MB-435
  GI50: 53.7 µM (inactive)
MCF7
  GI50: 62.1 µM (inactive)
PC-3
  GI50: 33.4 µM (inactive)
BT-549
  GI50: 31.1 µM (inactive)
EKVX
  GI50: 66.8 µM (inactive)
COLO 205
  GI50: 68.9 µM (inactive)
Malme-3M
  GI50: 30.3 µM (inactive)
SK-MEL-2
  GI50: > 100 µM (inactive)
HT-29
  GI50: 54 µM (inactive)
DU-145
  GI50: > 100 µM (inactive)
MDA-MB-231
  GI50: 80 µM (inactive)
Hs-578T
  GI50: > 100 µM (inactive)
LOX IMVI
  GI50: 72.1 µM (inactive)
UACC-257
  GI50: 37.4 µM (inactive)
OVCAR-5
  GI50: > 100 µM (inactive)
HOP-62
  GI50: 23.5 µM (inactive)
SK-MEL-28
  GI50: > 100 µM (inactive)
SW-620
  GI50: > 100 µM (inactive)
T47D
  GI50: 27.4 µM (inactive)
HCT-15
  GI50: 74.3 µM
HCC 2998
  GI50: > 100 µM (inactive)
SR
  GI50: > 100 µM (inactive)
SF-539
  GI50: 23.2 µM (inactive)
UACC-62
  GI50: 54.3 µM (inactive)
SN12C
  GI50: 77.6 µM (inactive)
M14
  GI50: > 100 µM (inactive)
U-251
  GI50: 86.7 µM (inactive)
A549
  GI50: > 100 µM (inactive)
HL-60
  GI50: 49.1 µM (inactive)
KM12
  GI50: 65.5 µM (inactive)
RPMI-8226
  GI50: 54.6 µM (inactive)

## NNC(N)Nc1ccccc1 (stereo unspecified)
OVCAR-3
  GI50: > 100 µM (inactive)
SNB-19
  GI50: > 100 µM (inactive)
CAKI-1
  GI50: > 100 µM (inactive)
A498
  GI50: > 100 µM (inactive)
MDA-N
  GI50: > 100 µM (inactive)
SF-295
  GI50: > 100 µM (inactive)
UO-31
  GI50: > 100 µM (inactive)
SK-MEL-5
  GI50: > 100 µM (inactive)
ACHN
  GI50: > 100 µM (inactive)
K562
  GI50: > 100 µM (inactive)
CCRF-CEM
  GI50: > 100 µM (inactive)
MOLT-4
  GI50: > 100 µM (inactive)
SF-268
  GI50: > 100 µM (inactive)
NCI-H522
  GI50: > 100 µM (inactive)
NCI-H460
  GI50: > 100 µM (inactive)
NCI/ADR-RES
  GI50: > 100 µM (inactive)
OVCAR-8
  GI50: > 100 µM (inactive)
HOP-92
  GI50: > 100 µM (inactive)
IGROV-1
  GI50: > 100 µM (inactive)
RXF 393
  GI50: > 100 µM (inactive)
NCI-H23
  GI50: > 100 µM (inactive)
TK-10
  GI50: > 100 µM (inactive)
MDA-MB-435
  GI50: > 100 µM (inactive)
MCF7
  GI50: > 100 µM (inactive)
PC-3
  GI50: > 100 µM (inactive)
BT-549
  GI50: > 100 µM (inactive)
EKVX
  GI50: > 100 µM (inactive)
COLO 205
  GI50: > 100 µM (inactive)
Malme-3M
  GI50: > 100 µM (inactive)
SK-MEL-2
  GI50: > 100 µM (inactive)
OVCAR-4
  GI50: > 100 µM (inactive)
HT-29
  GI50: > 100 µM (inactive)
DU-145
  GI50: > 100 µM (inactive)
MDA-MB-231
  GI50: > 100 µM (inactive)
Hs-578T
  GI50: > 100 µM (inactive)
SK-OV-3
  GI50: > 100 µM (inactive)
UACC-257
  GI50: > 100 µM (inactive)
OVCAR-5
  GI50: > 100 µM (inactive)
HOP-62
  GI50: > 100 µM (inactive)
SK-MEL-28
  GI50: > 100 µM (inactive)
NCI-H226
  GI50: > 100 µM (inactive)
SW-620
  GI50: > 100 µM (inactive)
T47D
  GI50: > 100 µM (inactive)
HCT-15
  GI50: > 100 µM
HCC 2998
  GI50: > 100 µM (inactive)
SR
  GI50: > 100 µM (inactive)
SF-539
  GI50: > 100 µM (inactive)
UACC-62
  GI50: > 100 µM (inactive)
SN12C
  GI50: > 100 µM (inactive)
M14
  GI50: > 100 µM (inactive)
U-251
  GI50: > 100 µM (inactive)
A549
  GI50: > 100 µM (inactive)
HL-60
  GI50: > 100 µM (inactive)
KM12
  GI50: > 100 µM (inactive)
